Test results reported in PubChem BioAssay (NCI).
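Growth conditions: 96-well plates. Treatment: test compound, 48 hours, 5 concentrations. Analysis: linear interpolation between bracketing concentrations; unreached endpoints set to highest concentration. At the TGI there is no net growth.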

How the values were obtained:
Assay in all cases: growth of human tumour cells (NCI), 48 h
[1] = system: 786-0 renal
[2] = system: A498 renal
[3] = system: A549 NSCLC
[4] = system: ACHN renal
[5] = system: CAKI-1 renal
[6] = system: CCRF-CEM leukemia
[7] = system: COLO 205 colon
[8] = system: DLD-1 colon
[9] = system: DMS 114 small cell lung
[10] = system: DMS 273 small cell lung
[11] = system: EKVX NSCLC
[12] = system: HCC-2998 colon
[13] = system: HCT-116 colon
[14] = system: HL-60(TB) leukemia
[15] = system: HOP-62 NSCLC
[16] = system: HOP-92 NSCLC
[17] = system: HT29 colon
[18] = system: IGROV1 ovarian
[19] = system: K-562 leukemia
[20] = system: KM12 colon
[21] = system: LOX IMVI melanoma
[22] = system: LXFL 529 NSCLC
[23] = system: M14 melanoma
[24] = system: M19-MEL melanoma
[25] = system: MALME-3M melanoma
[26] = system: MOLT-4 leukemia
[27] = system: NCI-H226 lung
[28] = system: NCI-H23 lung
[29] = system: NCI-H460 lung
[30] = system: OVCAR-3 ovarian
[31] = system: OVCAR-4 ovarian
[32] = system: OVCAR-5 ovarian
[33] = system: OVCAR-8 ovarian
[34] = system: RPMI-8226 leukemia
[35] = system: RXF 393 renal
[36] = system: RXF-631 renal
[37] = system: SF-268 CNS
[38] = system: SF-295 CNS
[39] = system: SK-MEL-2 melanoma
[40] = system: SK-MEL-28 melanoma
[41] = system: SN12C renal
[42] = system: SNB-19 CNS
[43] = system: SNB-75 CNS
[44] = system: SW-620 colon
[45] = system: TK-10 renal
[46] = system: U251 CNS
[47] = system: UACC-257 melanoma
[48] = system: UACC-62 melanoma
[49] = system: UO-31 renal
[50] = system: XF 498 CNS
[51] = system: HCT-15 colon
[52] = system: KM20L2 colon
[53] = system: NCI-H522 lung
[54] = system: SF-539 CNS
[55] = system: SK-MEL-5 melanoma
[56] = system: SK-OV-3 ovarian
[57] = system: SR leukemia
[58] = system: HOP-18 NSCLC

Measured: TGI

CCOC(=O)C(=O)C1C(=O)Nc2ccccc21 (stereo unspecified)
not listed: [51] | [52] | [53] | [54] | [55] | [56] | [57] | [58]
> 100 µM: all other assays above

COc1ccc(S(=O)(=O)N/N=C/CN2C(=O)c3ccccc3C2=O)cc1OC
not listed: [16] | [27] | [32] | [40] | [41] | [45] | [58]
> 100 µM: all other assays above

O=C1O[C@H](C(Cl)(Cl)Cl)N2CCCC12 (stereo partly specified)
not listed: [8] | [12] | [13] | [36] | [57]
> 100 µM: all other assays above

CNS(=O)(=O)NN(C)S(=O)(=O)c1ccc(Cl)cc1
not listed: [16] | [29] | [32] | [40] | [56] | [58]
> 100 µM: all other assays above
